pEC50, pIC50: −log10 of the molar value. Where a name gives a salt, the structure may show the parent alone. Values belong to the compound of their own block, whether it stands above or below them.
Key:
[1] = test system: human colon carcinoma cell line, SW-480; assay: Sulforhodamine B (SRB) tumor cell growth inhibition assay; assay type: cell-based; conditions: SW480, 144 h, SW-480 cell line, six days continuous exposure
Protocol: The compound of Example 1 was assayed for its growth inhibitory activity on the human colon carcinoma cell line, SW-480 obtained from ATCC (Rockville, Md.), to ascertain the degree of growth inhibition. Growth inhibition of this cell line is indicative of a benefit on precancerous lesions and neoplasms. The cell line and growth assay employed for such experiments are well characterized, and are used to evaluate the anti-neoplastic properties of NSAIDs. The assay is used by the United States National Cancer Institute in its screening program for new anti-cancer drugs.
Drug stock solutions were made in 100% DMSO and were then diluted with RPMI media for cell culture testing. All drug solutions were prepared fresh on the day of testing. The cultured cells were obtained at passage #99 and grown in RPMI media supplemented with 5% fetal calf serum, and 2 mM glutamine, 100 U/ml penicillin, […] streptomycin, and 0.25 μg/ml amphotericin. The cultures were maintained in a humidified atmosphere of 95% air and 5% CO2 at 37° C. […]
Tumor cell growth inhibition was assessed using the Sulforhodamine B (SRB) protein binding assay. […] The dye was then solubilized, and the optical density of the resulting solution was determined on a 96-well plate reader. […]
For each experiment, an IC50 value was determined and used for comparative purposes. […]

[2] = test system: HT-29 human colon carcinoma cells; assay: Apoptosis by morphology (acridine orange/ethidium bromide fluorescent microscopy); assay type: cell-based; conditions: HT-29 cells
Protocol: Apoptosis was measured using an assay of cell death based on morphological characteristics of apoptotic cells (i.e., condensed chromatin). Drug preparation and cell culture conditions were the same as for the SRB assay described above, except that HT-29 human colon carcinoma cells were used. Confluent cultures were established in 12.5 cm^2 flasks by plating 0.5×10^6 cells/flask. The cultures were assayed for apoptosis by fluorescent microscopy following labeling with acridine orange and ethidium bromide. Floating and attached cells were collected by trypsinization and washed three times in PBS. One ml aliquots were centrifuged (3 g). The pellet was resuspended in 25 μl media and 1 μl of a dye mixture containing 100 μg/ml acridine orange and 100 μg/ml ethidium bromide prepared in PBS and mixed gently. Ten μl of the mixture was placed on a microscope slide and covered with a 22 mm^2 coverslip, was examined with 40x dry objectives under epillumination by filter combination.
An observer blinded in regard to the identity of the samples scored at least 100 cells per sample. Apoptotic cells were identified by nuclear condensation of chromatin stained by the acridine orange or ethidium bromide.

[3] = test system: SW-480 colon adenocarcinoma cells; assay: Apoptosis by DNA fragmentation (Cell Death Detection ELISA plus); assay type: cell-based, human; conditions: for DNA Fragmentation FS (100 μM): fold stimulation FS=ODmax/ODveh; for DNA Fragmentation FS (100 μM) / pEC50: SW-480 cells, 48 hrs; for Apoptosis Level (Mean OD Value ± SD): DNA fragmentation, SW-480
Protocol: Apoptosis was also measured based on the amount of fragmented DNA contained in cell lysates. Briefly, SW-480 colon adenocarcinoma cells were plated in 96-well microtitre plates (“MTP”) at a density of 10 K cells/well in 180 μl and were incubated for 24 hrs. Cells were then treated with 20 μl aliquots of appropriately diluted compound, and allowed to incubate for an additional 48 hrs.
After the incubation, samples were prepared according to the following steps. The MTP was centrifuged (15 min., 1000 rpm) and the supernatant was carefully removed by fast inversion of the MTP. The cell pellets in each well were resuspended in 200 μl lysis buffer and incubated for 45 min. at room temperature to lyse the cells. The lysates were then centrifuged (15 min., 1000 rpm) and 20 μl aliquots of the supernatant (=cytoplasmic fraction) were transferred into the streptavidin coated MTP for analysis. Care was taken not to shake the lysed pellets in the MTP (=cell nucleii containing high molecular weight, unfragmented DNA). Samples were analyzed immediately, because storage at 4C or −20C reduces the ELISA-signals.
Samples were then processed according to a DNA fragmentation assay protocol, and dose-response curves were generated based on optical density readings. Quantification of DNA was done by a commercially available photometric enzyme-immunoassay manufactured by Mannheim-Boehringer under the name “Cell Death Detection ELISA^plus”. The assay is based on a quantitative sandwich-enzyme-immunoassay-principle using mouse monoclonal antibodies directed against DNA and histones, respectively. This allows the specific determination of mono and oligonucleosomes in the cytoplasmatic fraction of cell lysates. In brief, the assay procedure is as follows. The sample (cell-lysate, serum, culture-supematant etc.) is placed into a streptavidin-coated MTP. Subsequently, a mixture of anti-histone-biotin and anti-DNA-POD is followed by incubation for 2 hours. During the incubation period, the anti-histone antibody binds to the histone-component of the nucleosomes and simultaneously fixes the immunocomplex to the streptavidin-coated MTP via its biotinylation. Additionally, the anti-DNA-POD antibody reacts with the DNA component of the nucleosomes. After removal of unbound antibodies by a washing step, the amount of nucleosomes is quantified by the POD retained in the immunocomplex. POD is determined photometrically with ABTS® (2,2′-Azino-di[3-ethylbenzthiazolin-sulfonat])* as substrate.
Fold stimulation (FS=ODmax/ODveh), an indicator of apoptotic response, was determined for each compound tested. EC50 values were determined either specifically by data analysis software, or by estimates based on the effective concentration range of each compound (ECR=min. effective dose-min. dose to peak effect). These FS and EC50 values for the tested compounds are listed above in Table 4.
In addition, using the DNA fragmentation test above, a dose response for the compound of Example 1 was obtained.

[4] = target: T1, purified cyclooxygenase Type I (Ovis aries, UniProt P05979); assay: Cyclooxygenase (COX) inhibition, purified enzyme; assay type: biochemical; conditions: purified COX from ram seminal vesicles
T1 construct: The COX was purified from ram seminal vesicles; from tissue; host or cells: ram seminal vesicles
T1 sequence (P05979 25-600): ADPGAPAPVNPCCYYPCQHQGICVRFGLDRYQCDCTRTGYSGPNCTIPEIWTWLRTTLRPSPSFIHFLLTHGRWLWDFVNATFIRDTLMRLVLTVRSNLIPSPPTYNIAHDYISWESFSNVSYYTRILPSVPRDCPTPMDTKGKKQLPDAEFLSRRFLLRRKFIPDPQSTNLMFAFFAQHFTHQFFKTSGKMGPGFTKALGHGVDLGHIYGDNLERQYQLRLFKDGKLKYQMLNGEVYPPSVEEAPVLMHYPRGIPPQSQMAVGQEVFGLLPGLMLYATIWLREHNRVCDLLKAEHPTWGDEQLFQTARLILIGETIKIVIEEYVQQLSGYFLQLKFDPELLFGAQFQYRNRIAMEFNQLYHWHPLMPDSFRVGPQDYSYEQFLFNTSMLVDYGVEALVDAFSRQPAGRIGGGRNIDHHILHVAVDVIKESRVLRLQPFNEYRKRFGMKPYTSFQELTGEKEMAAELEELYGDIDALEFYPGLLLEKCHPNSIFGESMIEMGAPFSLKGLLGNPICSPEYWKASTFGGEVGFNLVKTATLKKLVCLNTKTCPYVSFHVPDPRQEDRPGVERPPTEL
Protocol: COX catalyzes the formation of prostaglandins and thromboxane by the oxidative metabolism of arachidonic acid. The compound of Example 1 of this invention, as well as a positive control, (sulindac sulfide) were evaluated to determine whether they inhibited purified cyclooxygenase Type I (see Table 3 below).
The compounds of this invention were evaluated for inhibitory effects on purified COX. The COX was purified from ram seminal vesicles, as described by Boopathy, R. and Balasubramanian, J., 239:371-377, 1988. COX activity was assayed as described by Evans, A. T., et al., “Actions of Cannabis Constituents on Enzymes Of Arachidonate Metabolism Anti-Inflammatory Potential,” Biochem. Pharmacol., 36:2035-2037, 1987. Briefly, purified COX was incubated with arachidonic acid (100 μM) for 2.0 min at 37° C. in the presence or absence of test compounds. The assay was terminated by the addition of TCA, and COX activity was determined by absorbance at 530 nm.

pIC50 [1]: 6.14
inhibition at 100 µM [4]: < 25%
SMILES: CC1=C(CC(=O)NCc2ccccc2)c2cc(F)ccc2/C1=C\c1ccncc1 [Example 1, (Z)-5-Fluoro-2-Methyl-(4-Pyridinylidene)-3-(N-Benzyl)-Indenylacetamide]
Morphology % Apoptotic Cells (1 μM) [2]: 88%
DNA Fragmentation FS (100 μM) [3]: 4.2
pEC50 ([3]; Homo sapiens, SW480): 4.54
Apoptosis Level (Mean OD Value ± SD) ([3]; dose 0.5 μM): 0.186 ± 0.008
Apoptosis Level (Mean OD Value ± SD) ([3]; dose 1.0 μM): 0.207 ± 0.061
Apoptosis Level (Mean OD Value ± SD) ([3]; dose 5.0 μM): 0.208 ± 0.073
Apoptosis Level (Mean OD Value ± SD) ([3]; dose 10 μM): 0.296 ± 0.050
Apoptosis Level (Mean OD Value ± SD) ([3]; dose 50 μM): 0.500 ± 0.048
Apoptosis Level (Mean OD Value ± SD) ([3]; dose 100 μM): 0.633 ± 0.053
Apoptosis Level (Mean OD Value ± SD) ([3]; dose 500 μM): 0.659 ± 0.012

SMILES: CC1=C(CC(=O)NCc2ccccc2)c2cc(F)ccc2/C1=C\c1cccnc1 [Example 2, (Z)-5-Fluoro-2-Methyl-(3-Pyridinylidene)-3-(N-Benzyl)-Indenylacetamide]
DNA Fragmentation FS (100 μM) [3]: 5.4

SMILES: CC1=C(CC(=O)NCc2ccccc2)c2cc(F)ccc2/C1=C\c1ccccn1 [Example 3, (Z)-5-Fluoro-2-Methyl-(2-Pyridinylidene)-3-(N-Benzyl)-Indenylacetamide]
DNA Fragmentation FS (100 μM) [3]: 8.5

SMILES: CC1=C(CC(=O)NCc2ccccc2)c2cc(F)ccc2/C1=C\c1ccnc2ccccc12 [Example 4, (Z)-5-Fluoro-2-Methyl-(4-Quinolinylidene)-3-(N-Benzyl)-Indenylacetamide]
DNA Fragmentation FS (100 μM) [3]: 3.9

SMILES: CC1=C(CC(=O)NCc2ccccc2)c2cc(F)ccc2/C1=C\c1ccncc1 [Example 38, (Z)-5-Fluoro-2-Methyl-(4-Pyridylidene)-3-(N-Benzyl) Indenylacetamide Hydrochloride]
pEC50 [3]: 4.82

Reference: patent US6426349B1, “Substituted condensation products of N-benzyl-3-indenylacetamides with heterocyclic aldehydes for neoplasia” (Cell Pathway and the University of Arizona, priority 1997, dated 2002)
